What all share (format): cell-based, human
Experiment [1] relates to HepG2 (hepatocellular carcinoma) cell line. The experiment can be described thus: CellTiter-Glo luminescent cell viability assay, HepG2. The note with it: for viability at 4 µM / viability at 10 µM: HepG2, HepG, 72 h; for viability at 4 µM: compound at 4 μM; for viability at 10 µM: compound at 10 μM; for EC50: HepG2 cell line, 72 h incubation, CellTiter-Glo, read-out: EC50, growth inhibition of HepG2. Summed up: (§1)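 72 h compound exposure, 37 °C, 5% CO2, 10% FBS medium; ATP luminescence read after 30 min RT equilibration. Viability as % of H2O/DMSO diluent control; EC50 = dose giving 50% of control signal. Duplicate points minimum.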
Background: In ATP-based viability assays light output follows the ATP content of the culture.

The test system of experiment [2] is 786-O (renal adenocarcinoma) cell line. Nature of the experiment: CellTiter-Glo luminescent cell viability assay, 786-O. The following applies: for viability at 4 µM / viability at 10 µM: 786-O, 72 h; for viability at 4 µM: compound at 4 μM; for viability at 10 µM: compound at 10 μM; for EC50: 786-O cell line, 72 h incubation, CellTiter-Glo, read-out: EC50, growth inhibition of 786-O. Summed up:
(§2)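 Luminescent signal, normalised to diluent-treated cultures, defines % viability; EC50 is the concentration lowering it to 50%. Cells had been exposed to compound for 72 h at 37 °C in medium with 10% FBS, at a constant H2O or DMSO percentage.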

For experiment [3], the system named is MOLM-14 (acute myeloid leukemia) cell line. The experiment can be described thus: CellTiter-Glo luminescent cell viability assay, MOLM-14. The note with it: for viability at 4 µM: MOLM-14, compound at 4 μM; for viability at 4 µM / viability at 10 µM: 72 h; for viability at 10 µM: MOLM-14, compound at 10 μM; for EC50: MOLM-14 cell line, 72 h incubation, CellTiter-Glo, read-out: EC50, growth inhibition of MOLM-14. The procedure, abridged:
as §1

Experiment [4] deals with A375 (malignant melanoma) cell line. Nature of the experiment: CellTiter-Glo luminescent cell viability assay, A375. The note with it: for viability at 4 µM: A375, compound at 4 μM; for viability at 4 µM / viability at 10 µM: 72 h; for viability at 10 µM: A375, compound at 10 μM; for EC50: A375 cell line, 72 h incubation, CellTiter-Glo, read-out: EC50, growth inhibition of A375. The procedure, abridged: as §2

Experiment [5] has as its system HCT-116 (colorectal carcinoma) cell line. The experiment can be described thus: CellTiter-Glo luminescent cell viability assay, HCT-116. The note with it: for viability at 4 µM: HCT-116, compound at 4 μM; for viability at 4 µM / viability at 10 µM: 72 h; for viability at 10 µM: HCT-116, compound at 10 μM; for EC50: HCT-116 cell line, 72 h incubation, CellTiter-Glo, read-out: EC50, growth inhibition of HCT-116. The procedure, abridged:
as §2

Experiment [6] relates to Huh7 (hepatocellular carcinoma) cell line. Nature of the experiment: CellTiter-Glo luminescent cell viability assay, Huh7. The following applies: for viability at 4 µM: Huh7, compound at 4 μM; for viability at 4 µM / viability at 10 µM: 72 h; for viability at 10 µM: Huh7, compound at 10 μM; for EC50: Huh7 cell line, 72 h incubation, CellTiter-Glo, read-out: EC50, growth inhibition of Huh7. The procedure, abridged:
as §1

The viability is a read-out of living cells in per cent, often relative to untreated cells. One may read the EC50 as the midpoint of the concentration-response curve.

Counter-ions that a name gives are not always drawn. Like-named read-outs stand apart in the source and are kept apart here.

Take `COc1ccc(OC2CCCN(c3c(C#N)c(NCc4ccc(Cl)cc4)nc4ccccc34)C2)cc1` (stereo not drawn) [Compound 3232CN, 2-(4-chlorobenzylamino)-3-cyano-4-[3-(4-methoxyphenoxy)piperidin-1-yl]quinoline]: the viability at 4 µM came out at 79.9% in experiment [1] (Homo sapiens); 79.9% in experiment [2] (Homo sapiens, 786-0); 91.1% in experiment [3] (Homo sapiens); 104% in experiment [4] (Homo sapiens, A-375); 93.9% in experiment [5] (Homo sapiens); 98.7% in experiment [6] (Homo sapiens, Huh-7). The viability at 10 µM in experiment [1] (Homo sapiens) was found to be 72.3%; in experiment [2] (Homo sapiens, 786-0), 73.5%; in experiment [3] (Homo sapiens), 99.8%; in experiment [4] (Homo sapiens, A-375) it was 99.4%; in experiment [5] (Homo sapiens), 82.9%; in experiment [6] (Homo sapiens, Huh-7) it was 90.3%.

For `Cc1ccc(Nc2nc3ccccc3c(N3CCC(NC(C)(C)C)CC3)c2C#N)cc1` [Compound 3248CN, 2-(4-methylphenylamino)-3-cyano-4-[4-(tert-butylamino)piperidin-1-yl]quinoline], the viability at 4 µM in experiment [1] (Homo sapiens) turned out to be 109%; in experiment [2] (Homo sapiens, 786-0) it was 100%; in experiment [3] (Homo sapiens), 88.5%; in experiment [4] (Homo sapiens, A-375) it was 79.2%; in experiment [5] (Homo sapiens) it was 88.9%; in experiment [6] (Homo sapiens, Huh-7), 89.3%. For the same compound, the viability at 10 µM in experiment [1] (Homo sapiens) was determined as 73.1%; in experiment [2] (Homo sapiens, 786-0), 27.7%; in experiment [3] (Homo sapiens), 53.4%; in experiment [4] (Homo sapiens, A-375), 0.4%; in experiment [5] (Homo sapiens) it was 0.5%; in experiment [6] (Homo sapiens, Huh-7), 56.3%.

In the case of `Cc1nccnc1OC1CCCN(c2c(C#N)c(NCc3ccc(Cl)cc3)nc3ccccc23)C1` (stereo not drawn) [Compound 3328CN, 2-(4-chlorobenzylamino)-3-cyano-4-{3-[(3-methylpyrazin-2-yl)oxy]piperidin-1-yl}quinoline], the viability at 4 µM in experiment [1] (Homo sapiens) came to 98.8%; in experiment [2] (Homo sapiens, 786-0) it was 93.8%; in experiment [3] (Homo sapiens), 105%; in experiment [4] (Homo sapiens, A-375) it was 92.7%; in experiment [5] (Homo sapiens) it was 93.2%; in experiment [6] (Homo sapiens, Huh-7), 125%. Besides, the viability at 10 µM in experiment [1] (Homo sapiens) turned out to be 90.8%; in experiment [2] (Homo sapiens, 786-0), 85.5%; in experiment [3] (Homo sapiens), 95.4%; in experiment [4] (Homo sapiens, A-375) it was 87.3%; in experiment [5] (Homo sapiens) it was 82.3%; in experiment [6] (Homo sapiens, Huh-7) it was 104%.

On to `Cc1ccc(Nc2nc3ccccc3c(N3CCC(NC(C)(C)C)CC3)c2C#N)cc1Nc1nccc(C(F)(F)F)n1` [Compound 538CN, 2-[3-(4-trifluoromethylpyrimidin-2-ylamino)-4-methyl-phenylamino]-3-cyano-4-(4-tert-butylaminopiperidin-1-yl)-quinoline], for which the EC50 in experiment [1] (Homo sapiens) fell in the range of 0.5 to 5 µM; in experiment [2] (Homo sapiens, 786-0), 5 to 10 µM; in experiment [3] (Homo sapiens), 5 to 10 µM; in experiment [4] (Homo sapiens, A-375) it was 0.5 to 5 µM; in experiment [5] (Homo sapiens) it was 0.5 to 5 µM; in experiment [6] (Homo sapiens, Huh-7), 5 to 10 µM.

Regarding `CC(C)(C)NC1CCN(c2c(F)c(Nc3cccc(Nc4nccc(C(F)(F)F)n4)c3)nc3ccccc23)CC1` [Compound 540F, 2-[3-(4-trifluoromethylpyrimidin-2-ylamino)phenylamino]-3-fluoro-4-(4-tert-butylaminopiperidin-1-yl)quinoline], the viability at 4 µM in experiment [1] (Homo sapiens) was determined as 0.3%; in experiment [2] (Homo sapiens, 786-0) it was 0.8%; in experiment [3] (Homo sapiens) it was 8.8%; in experiment [4] (Homo sapiens, A-375), 0.4%; in experiment [5] (Homo sapiens), 0.4%; in experiment [6] (Homo sapiens, Huh-7), 43.3%. The viability at 10 µM in experiment [1] (Homo sapiens) came to 0.2%; in experiment [2] (Homo sapiens, 786-0), 0.3%; in experiment [3] (Homo sapiens) it was 0.3%; in experiment [4] (Homo sapiens, A-375), 0.3%; in experiment [5] (Homo sapiens), 0.3%; in experiment [6] (Homo sapiens, Huh-7), 59.4%.

For `CC(C)(C)NC1CCN(c2c(C#N)c(NCc3ccc(Cl)cc3)nc3ccccc23)CC1` [Compound 352CN, 2-(4-chlorobenzylamino)-3-cyano-4-[4-(tert-butylamino)piperidin-1-yl]quinoline], the viability at 4 µM in experiment [1] (Homo sapiens) is 71.2%; in experiment [2] (Homo sapiens, 786-0) it was 52.4%; in experiment [3] (Homo sapiens), 76.9%; in experiment [4] (Homo sapiens, A-375), 29.1%; in experiment [5] (Homo sapiens) it was 43.9%; in experiment [6] (Homo sapiens, Huh-7) it was 73.2%. Besides, the viability at 10 µM in experiment [1] (Homo sapiens) was 0.6%; in experiment [2] (Homo sapiens, 786-0) it was 0.5%; in experiment [3] (Homo sapiens), 0.6%; in experiment [4] (Homo sapiens, A-375), 0.5%; in experiment [5] (Homo sapiens) it was 0.5%; in experiment [6] (Homo sapiens, Huh-7) it was 0.6%.

On to `Cc1cc(CNc2nc3ccccc3c(N3CCC(NC(C)(C)C)CC3)c2C#N)ccc1Nc1nccc(-c2cccnc2)n1` [Compound 498CN, 2-[4-(4-(pyridin-3-yl)pyrimidin-2-ylamino)-3-methylbenzylamino]-3-cyano-4-(4-tert-butylaminopiperidin-1-yl)quinoline], for which the viability at 4 µM was determined as 0.2% in experiment [1] (Homo sapiens); 0.2% in experiment [2] (Homo sapiens, 786-0); 0.3% in experiment [3] (Homo sapiens); 0.2% in experiment [4] (Homo sapiens, A-375); 0.2% in experiment [5] (Homo sapiens); 58.5% in experiment [6] (Homo sapiens, Huh-7). In addition, the viability at 10 µM came out at 0.1% in experiment [1] (Homo sapiens); 0.1% in experiment [2] (Homo sapiens, 786-0); 0.2% in experiment [3] (Homo sapiens); 0.1% in experiment [4] (Homo sapiens, A-375); 0.1% in experiment [5] (Homo sapiens); 0.2% in experiment [6] (Homo sapiens, Huh-7).

With `OC[C@@H]1CCCN1c1cc(NCc2ccc(Cl)cc2)nc2ccccc12` [Compound 2308, (2S) 2-(4-chlorobenzylamino)-4-[2-(hydroxymethyl)pyrrolidin-1-yl]quinoline, hydrochloride], the EC50 in experiment [1] was in the range of 0.5 to 5 µM; in experiment [2], 5 to 10 µM; in experiment [3], 0.5 to 5 µM; in experiment [4], 0.5 to 5 µM; in experiment [5], 5 to 10 µM; in experiment [6], 0.5 to 5 µM.

Take `Clc1ccc(CNc2cc(N3CCC(Oc4cnccn4)CC3)c3ccccc3n2)cc1` [Compound 2958, 2-(4-chlorobenzylamino)-4-[4-(pyrazin-2-yloxy)piperidin-1-yl]quinoline hydrochloride]: the EC50 was in the range of 0.5 to 5 µM in experiment [1] (Homo sapiens); 5 to 10 µM in experiment [2] (Homo sapiens, 786-0); 0.5 to 5 µM in experiment [3] (Homo sapiens); 5 to 10 µM in experiment [4] (Homo sapiens, A-375); 5 to 10 µM in experiment [5] (Homo sapiens); 0.5 to 5 µM in experiment [6] (Homo sapiens, Huh-7).

With `COC[C@@H]1CCCN1c1cc(NCc2ccc(Cl)cc2)nc2ccccc12` [Compound 2310, (2S) 2-(4-chlorobenzylamino)-4-[2-(methoxymethyl)pyrrolidin-1-yl]quinoline, hydrochloride], the EC50 in experiment [1] (Homo sapiens) lay within 0.5 to 5 µM; in experiment [2] (Homo sapiens, 786-0), 5 to 10 µM; in experiment [3] (Homo sapiens), 0.5 to 5 µM; in experiment [4] (Homo sapiens, A-375), 0.5 to 5 µM; in experiment [5] (Homo sapiens), 0.5 to 5 µM; in experiment [6] (Homo sapiens, Huh-7), 0.5 to 5 µM.

On to `Clc1ccc(CNc2cc(N3CC[C@@H](Oc4ccccn4)C3)c3ccccc3n2)cc1` [Compound 3026, (3R) 2-(4-chlorobenzylamino)-4-[3-(pyridin-2-yloxy)pyrrolidin-1-yl]quinoline hydrochloride], for which the EC50 in experiment [1] (Homo sapiens) lay within 0.5 to 5 µM; in experiment [2] (Homo sapiens, 786-0) it was 0.5 to 5 µM; in experiment [3] (Homo sapiens), 0.5 to 5 µM; in experiment [4] (Homo sapiens, A-375), 0.5 to 5 µM; in experiment [5] (Homo sapiens) it was 0.5 to 5 µM; in experiment [6] (Homo sapiens, Huh-7) it was 0.5 to 5 µM.

For `CCN(Cc1ccc(Cl)cc1)c1cc(N2CCC(NC(C)(C)C)CC2)c2ccccc2n1` [Compound 214, 2-(N-4-chlorobenzyl-N-ethylamino)-4-[4-(tert-butylamino)-piperidin-1-yl]-quinoline hydrochloride], the viability at 4 µM in experiment [1] (Homo sapiens) was 0.3%; in experiment [2] (Homo sapiens, 786-0), 6.5%; in experiment [3] (Homo sapiens) it was 26.8%; in experiment [4] (Homo sapiens, A-375), 0.4%; in experiment [5] (Homo sapiens) it was 0.2%; in experiment [6] (Homo sapiens, Huh-7), 43%. The viability at 10 µM in experiment [1] (Homo sapiens) is 0.4%; in experiment [2] (Homo sapiens, 786-0) it was 0.4%; in experiment [3] (Homo sapiens) it was 16.4%; in experiment [4] (Homo sapiens, A-375), 0.4%; in experiment [5] (Homo sapiens), 0.3%; in experiment [6] (Homo sapiens, Huh-7) it was 0.4%.
